Reference: patent publication US4720495A, “Benzo[ij]quinolizine-2-carboxylic acids useful for treating bacterial infection” (priority 1985, dated 1988)
≈ marks a conversion by molar mass, not a printed value.

Experiments:
[1] = tested on: Serratia marcescens IAM 1184; assay: minimal inhibitory concentration, in vitro antibacterial activity; type: cell-based; details: IAM1184, 37° C., 20 hours
Description: (§1) The in vitro antibacterial activities of typical examples of the present compounds [I] were evaluated in terms of the minimal inhibitory concentration defined as the lowest concentration of the compound preventing the bacterial growth. The Gram-positive bacteria used as test microorganisms included Bacillus subtilis, Staphylococcus aureus and Streptococcus faecalis, and the Gram-negative bacteria used as test microorganisms included Escherichia coli, Enterobacter cloacae, Klebsiella pneumoniae, Proteus vulgaris, Pseudomonas aeruginosa, Serratia marcescens and Salmonella enteritidis. The minimal inhibitory concentration (cultured at 37° C. for 20 hours) was determined according to the standard method prescribed by the Japan Society of Chemotherapy (CHEMOTHERAPY, Vol. 29, No. 1, p. 76, 1981). The following compounds were used as typical examples of the present compounds [I]. At the end of the chemical name of each compound, its tentative designation is given in Parentheses.
(§2) For purposes of comparison, the in vitro antibacterial activities of ofloxacin, OPC-7241 and compound α were evaluated according to the same method as described above and the test results thus obtained are also shown in Table 1.

[2] = tested on: Bacillus subtilis ATCC 6633; assay: as above; type: cell-based; details: ATCC6633, 37° C., 20 hours
Description: as §1, §2

Escherichia coli CI-304 = assay: as above; type: cell-based; details: CI304, 37° C., 20 hours
Description: as §1, §2

[3] = tested on: Streptococcus faecalis AHU 1085; assay: as above; type: cell-based; details: Enterococcus faecalis, AHU1085, 37° C., 20 hours
Description: as §1, §2

Enterobacter cloacae 963 = assay: as above; type: cell-based; details: 37° C., 20 hours
Description: as §1, §2

[4] = tested on: Klebsiella pneumoniae PCI 602; assay: as above; type: cell-based; details: PCI602, 37° C., 20 hours
Description: as §1, §2

[5] = tested on: Escherichia coli NIHJ JC-2; assay: as above; type: cell-based; details: NIHJJC2, 37° C., 20 hours
Description: as §1, §2

[6] = tested on: Proteus vulgaris ATCC 13315; assay: as above; type: cell-based; details: ATCC13315, 37° C., 20 hours
Description: as §1, §2

[7] = tested on: Salmonella enteritidis G14; assay: as above; type: cell-based; details: Salmonella enterica, 37° C., 20 hours
Description: as §1, §2

[8] = tested on: Pseudomonas aeruginosa NCTC 10490; assay: as above; type: cell-based; details: NCTC10490, 37° C., 20 hours
Description: as §1, §2

[9] = tested on: Staphylococcus aureus FDA 209P JC-1; assay: as above; type: cell-based; details: FDA209P, 37° C., 20 hours
Description: as §1, §2

[10] = enteral absorbability, serum concentration after oral administration to mice; type: in vivo; details: mouse, 50 mg/kg orally, fasted male ICR mice; for concentration at 0.5 h: 30 min.
Description: Using male ICR mice fasted overnight (weighing 20±1 g), the enteral absorbability of some typical examples of the present compounds [I] was tested. This test was carried out by administering 50 mg/kg of each test compound orally to mice and determining its serum concentration 30 minutes, 1 hour, 2 hours and 4 hours after administration. Five mice were used for each test point. At each test point, whole blood was collected from the mice by cardiac puncture and used to prepare serum samples. Concentrations of the test compounds in serum samples were determined by the paper disc method using Escherichia coli CI-304 as the test microorganism.
For purposes of comparison, the enteral absorbability of ofloxacin and OPC-7241 was tested in the same manner as described above and the results thus obtained are also shown in Table 2.

Row | Structure (SMILES) | MIC [1] [µg/mL] | MIC [2] [µg/mL] | MIC (Escherichia coli CI-304) [µg/mL] | MIC [3] [µg/mL] | MIC (Enterobacter cloacae 963) [µg/mL] | MIC [4] [µg/mL] | MIC [5] [µg/mL] | MIC [6] [µg/mL] | MIC [7] [µg/mL] | MIC [8] [µg/mL] | MIC [9] [µg/mL] | concentration at 0.5 h [10] [ng/mL] | concentration at 1 h [10] [ng/mL] | concentration at 2 h [10] [ng/mL] | concentration at 4 h [10] [ng/mL]
1 | CCN1CCN(c2c(Cl)cc3c(=O)c(C(=O)O)cn4c3c2C(=O)CC4C)CC1 (stereo not drawn) [Compound 9, 9-Chloro-5-methyl-8-(4-ethyl-1-piperazinyl) -6,7-dihydro-1,7-dioxo-1H, 5H-benzo[ij]quinolizine-2-carboxylic acid] | 3.13 (≈ 7.75 µM) | 0.2 (≈ 0.495 µM) | 0.1 (≈ 0.248 µM) | 1.56 (≈ 3.86 µM) | 0.2 (≈ 0.495 µM) | 0.1 (≈ 0.248 µM) | 0.2 (≈ 0.495 µM) | 0.2 (≈ 0.495 µM) | 0.78 (≈ 1.93 µM) | 0.78 (≈ 1.93 µM) | 0.39 (≈ 0.966 µM) | 20200 | 15900 | 7700 | 4500
2 | CC1CN(c2c(F)cc3c(=O)c(C(=O)O)cn4c3c2C(=O)CC4C)CC(C)N1 (stereo not drawn) [Compound 11, 9-Fluoro-5-methyl-8-(3,5-dimethyl-1-piperazinyl) -6,7-dihydro-1,7-dioxo-1H, 5H-benzo[ij]quinolizine-2-carboxylic acid] | 3.13 (≈ 8.08 µM) | 0.1 (≈ 0.258 µM) | 0.1 (≈ 0.258 µM) | 3.13 (≈ 8.08 µM) | 0.2 (≈ 0.516 µM) | 0.1 (≈ 0.258 µM) | 0.2 (≈ 0.516 µM) | 0.39 (≈ 1.01 µM) | 0.78 (≈ 2.01 µM) | 1.56 (≈ 4.03 µM) | 0.78 (≈ 2.01 µM) | 20800 | 15800 | 7200 | 5300
3 | CC1C=Cc2c(N3CCN(C)CC3)c(Cl)cc3c(=O)c(C(=O)O)cn1c23 (stereo not drawn) [Compound 24, 9-Chloro-5-methyl-8-(4-methyl-1-piperazinyl)-1-oxo-1H,5H-benzo[ij]quinolizine-2-carboxylic acid] | 1.56 (≈ 4.17 µM) | 0.2 (≈ 0.535 µM) | 0.2 (≈ 0.535 µM) | 0.78 (≈ 2.09 µM) | 0.2 (≈ 0.535 µM) | 0.1 (≈ 0.267 µM) | 0.39 (≈ 1.04 µM) | 0.1 (≈ 0.267 µM) | 1.56 (≈ 4.17 µM) | 1.56 (≈ 4.17 µM) | 0.2 (≈ 0.535 µM) |  |  |  | 
4 | CC1CN(c2c(Cl)cc3c(=O)c(C(=O)O)cn4c3c2C=CC4C)CCN1 (stereo not drawn) [Compound 31, 9-Chloro-5-methyl-8-(3-methyl-1-piperazinyl) -1-oxo-1H, 5H-benzo[ij]quinolizine-2-carboxylic acid] | 1.56 (≈ 4.17 µM) | 0.2 (≈ 0.535 µM) | 0.2 (≈ 0.535 µM) | 0.78 (≈ 2.09 µM) | 0.2 (≈ 0.535 µM) | 0.1 (≈ 0.267 µM) | 0.1 (≈ 0.267 µM) | 0.1 (≈ 0.267 µM) | 1.56 (≈ 4.17 µM) | 1.56 (≈ 4.17 µM) | 0.2 (≈ 0.535 µM) | 13800 | 12700 | 8400 | 5000
5 | CC1C=Cc2c(N3CCN(C)CC3)c(F)cc3c(=O)c(C(=O)O)cn1c23.Cl (stereo not drawn) [Compound 37, 9-Fluoro-5-methyl-8-(4-methyl-1-piperazinyl) -1-oxo-1H, 5H-benzo[ij]quinolizine-2-carboxylic acid hydrochloride] | 1.56 | 0.1 | 0.2 | 1.56 | 0.78 | 0.1 | 0.39 | 0.1 | 0.78 | 0.78 | 0.39 |  |  |  | 
6 | CC1CN(c2c(F)cc3c(=O)c(C(=O)O)cn4c3c2C(=O)CC4C)CC(C)N1C.Cl.O (stereo not drawn) [Compound 39, 9-Fluoro-5-methyl-8-(3,4,5-trimethyl-1-piperazinyl) -6,7-dihydro-1,7-dioxo-1H, 5H-benzo[ij]quinolizine-2-carboxylic acid hydrochloride monohydrate] | 1.56 | 0.2 | 0.2 | 0.78 | 0.39 | 0.1 | 0.39 | 0.2 | 0.78 | 3.13 | 0.39 |  |  |  | 
